Measurements taken from BigSolDB 2.1.

C#C[C@]1(O)CC[C@H]2[C@@H]3CCC4=CC(=O)CC[C@@H]4[C@H]3C(=C)C[C@@]21CC
solubility (mole fraction)
Settings | 278.15 K | 283.15 K | 288.15 K | 293.15 K | 298.15 K | 303.15 K | 308.15 K | 313.15 K | 318.15 K | 323.15 K
in DMF | 0.0797 | 0.084 | 0.0882 | 0.093 | 0.0975 | 0.102 | 0.107 | 0.112 | 0.117 | 0.121
in isopropanol | 0.00597 | 0.00697 | 0.00803 | 0.00923 | 0.0106 | 0.0121 | 0.0137 | 0.0156 | 0.0174 | 0.0195
in n-propanol | 0.00504 | 0.00579 | 0.00677 | 0.00783 | 0.00901 | 0.0103 | 0.0117 | 0.0132 | 0.015 | 0.0168
in water | 1.48e-05 | 1.8e-05 | 2.15e-05 | 2.56e-05 | 3.11e-05 | 3.69e-05 | 4.3e-05 | 5.03e-05 | 5.85e-05 | 6.78e-05
